Starred links: 1 amine or outer side, 2 acyl side, 3 side chain; linkers in the order of their positions; H or OH if unused. Non-standard residues stand in square brackets, D forms with d. Residues, ends and D or L forms follow the SMILES beside them. *: point of attachment. X2 = O=C(O)CC[C@@H](NC(=O)N[C@H](CCCCNC(=O)[C@H](Cc1ccc2ccccc2c1)NC(=O)CCCN1C(=O)C[C@@H](*)C1=O)C(=O)O)C(=O)O; DOTA = O=C(O)CN1CCN(CC(=O)O)CCN(CC(=O)*)CCN(CC(=O)O)CC1; X1 = O=C(c1ccc(NN[*:1])nc1)[*:2]
What was measured:
[1] = tested on: LNCaP cells (PSMA+, CS-GRP78+); experiment: Cytosolic and nuclear internalization (subcellular fractionation) in LNCaP cells; format: cell-based, human; conditions: LNCaP cells 1 × 10^5/200 µL, 37 kBq/4 nmol, 1 h, 37 °C; for Cytosolic internalization: gamma counting of cytosolic fraction; for Nuclear internalization: gamma counting of nuclear extract
Procedure: (§1) PC-3 (CRL-1435; ATCC, Manassas, VA, USA) and LNCaP human prostate cancer cells (CRL-1740; ATCC, USA) were cultured in Roswell Park Memorial Institute medium (RPMI; Sigma-Aldrich, USA) at 37 °C, 85% humidity, 5% CO2, and 10% fetal bovine serum.
(§2) Assays were performed to evaluate the cellular uptake and subcellular distribution of [^177Lu]Lu–iPSMA–iGRP78 and the control monomers [^177Lu]Lu–iPSMA and [^177Lu]Lu–iGRP78 in two prostate cancer cell lines: LNCaP (PSMA+, SC-GRP78+) and PC3 (PSMA^−, CS-GRP78^−). Cells (1 × 10^5/200 µL) were incubated with the radiopharmaceutical (37 kBq/4 nmol) for 1 h at 37 °C to assess the distribution between the cytoplasm and nucleus.
Following incubation, tubes were measured with a NaI(Tl) crystal scintillation gamma-counter (NML Inc., TX, USA) to determine 100% of the initial activity. The tubes were centrifuged at 250× g for 5 min, and the supernatant was withdrawn. The activity in the pellet was measured to determine the percentage of cellular uptake (surface uptake) relative to the initial activity. Next, the nuclei and cytoplasm of the cells were separated using a Nuclear Extraction Kit (Chemicon International, Inc., Temecula, CA, USA). To prepare for fractionation, the cells were first washed with 1 mL of 0.2 M acetic acid/0.5 M NaCl. The tubes were centrifuged at 250× g for 5 min, washed with phosphate-buffered saline (PBS), and then centrifuged again to ensure thorough removal of extracellular components.
(§3) After centrifugation, the cell pellet, which corresponds to the internalized activity, was quantified using a gamma counter. The radioactivity measured in the pellet was defined as 100% of the internalized activity.
The pellet was resuspended in cytoplasmic lysis buffer with dithiothreitol and a protease inhibitor cocktail to maintain protein stability during lysis. Mechanical disruption was performed by passing the suspension through a 27-gauge needle multiple times using a syringe to ensure complete cell breakdown. The resulting lysate underwent centrifugation at 8000× g for 20 min at 4 °C. The supernatant, representing the cytosolic fraction, was collected and analyzed for radioactivity via gamma counting.
The remaining pellet, containing the nuclear fraction, was resuspended in nuclear extraction buffer supplemented with dithiothreitol and a protease inhibitor cocktail. Nuclear disruption was carried out before centrifuging at 16,000× g for 5 min at 4 °C. The supernatant contained the nuclear extract, while the membrane components remained in the pellet.
(§4) Radioactivity measurements were conducted on both the nuclear extract and the membrane pellet fractions using a gamma counter. The percentage of activity within each subcellular compartment was calculated for each time point, allowing for evaluation of the distribution of [^177Lu]Lu–iPSMA–iGRP78 and control monomers [^177Lu]Lu–iPSMA and [^177Lu]Lu–iGRP78 between the cytoplasmic and nuclear compartments of prostate cancer cells over time.

[2] = tested on: PC3 cells (PSMA−, CS-GRP78−); experiment: Cytosolic and nuclear internalization (subcellular fractionation) in PC3 cells; format: cell-based, human; conditions: PC3 cells 1 × 10^5/200 µL, 37 kBq/4 nmol, 1 h, 37 °C
Procedure: as §1, §2
Following incubation, tubes were measured with a NaI(Tl) crystal scintillation gamma-counter (NML Inc., TX, USA) to determine 100% of the initial activity. The tubes were centrifuged at 250× g for 5 min, and the supernatant was withdrawn. The activity in the pellet was measured to determine the percentage of cellular uptake (surface uptake) relative to the initial activity. […]
as §3
The pellet was resuspended in cytoplasmic lysis buffer with dithiothreitol and a protease inhibitor cocktail to maintain protein stability during lysis. […] The supernatant, representing the cytosolic fraction, was collected and analyzed for radioactivity via gamma counting. […]
as §4

LNCaP cells = experiment: Cytotoxicity / cell viability by flow cytometry (Muse Count & Viability kit); format: cell-based, human; conditions: LNCaP 5 × 10^4 cells/200 µL, 1.4 MBq, 5 h (15 Gy/h whole-cell dose); triplicate (n = 3) from two independent experiments, mean ± SD
Procedure: The effects of radioligands on LNCaP cell viability were evaluated using advanced flow cytometry techniques. The radioligands tested were [^177Lu]Lu–iPSMA–iGRP78, [^177Lu]Lu–iPSMA, and [^177Lu]Lu–iGRP78. This evaluation was conducted to assess their impact on the survival of prostate cancer cells. Cell viability was measured using the Count & Viability kit (Muse®). Prior to analysis, the Muse® cell analyzer (Merck Millipore, Burlington, MA, USA) was calibrated with the verification kit to ensure its accuracy. First, a fresh, untreated LNCaP cell sample was analyzed to establish reference parameters, including cell size, granularity, and natural cell viability. To accurately distinguish between live and dead cells, an aliquot of the same cell population was treated with 0.05% Triton X-100. This treatment defined the dead cell detection window in the analyzer. Next, a specific detection window was established for LNCaP cells to differentiate between viable and non-viable cells during analysis accurately. For each experimental group, a cell suspension containing 5 × 10^4 cells in 200 µL was prepared. The cells were then treated as follows: 1.4 MBq of (a) [^177Lu]Lu–iPSMA–iGRP78, (b) [^177Lu]Lu–iPSMA, (c) [^177Lu]Lu–iGRP78, and (d) untreated. After five hours of treatment (15 Gy/h at whole-cell dose), the cells were mixed with 450 µL of viability reagent and incubated for 5 min at room temperature in the dark. All measurements were performed in triplicate (n = 3) from two independent experiments to ensure reliability and reproducibility. To determine the radiation absorbed dose rate to the whole cell (15 Gy/h), the total number of nuclear transformations (N) was calculated. This value was normalized to the administered activity unit (MBq·s/MBq) by integrating the activity (A(t)) from time zero to five hours. Next, the absorbed dose was calculated by multiplying N by the dose factor (DF: from cell to cell) (Gy/Bq·s), as determined by MIRDcell software, considering the crossfire absorbed dose (version 2.1).

[3] = Stability in PBS (radiochemical purity by radio-HPLC); format: physicochemical; conditions: 10 µL (18.5 MBq) in 1 mL PBS, 3 h, 37 °C; reverse-phase radio-HPLC; n = 3
Procedure: The quality control assessed bacterial endotoxins, sterility, pH, and appearance, following the general methods of the Mexican Pharmacopeia. Radiochemical purity was evaluated by reversed-phase radio-high-performance liquid chromatography (radioHPLC) ( LC-40DxR, Shimadzu, Kyoto, Japan). A shim-pack GIST C18 column (Shimadzu: 4.6 mm × 25 cm, 5 μm particle size) with a linear gradient from 100% to 10% of mobile phase A (0.1% TFA aqueous solution) and from 0% to 90% of phase B (0.1% TFA in acetonitrile) in 20 min at 1 mL/min. The retention time of [^177Lu]Lu–iPSMA–iGRP78 was 17.4 ± 0.3 min, and 3.7 ± 0.2 min for ^177LuCl3. Radiochemical purities of [^177Lu]Lu–iPSMA (tR = 15.2 ± 0.2 min) and [^177Lu]Lu–iGRP78 (tR = 19.2 ± 0.4 min) were also verified to be higher than 95%.
To assess the in vitro stability of [^177Lu]Lu-iPSMA-iGRP78, 10 µL (18.5 MBq) of the radiopharmaceutical was diluted in either 1 mL of PBS or 1 mL of human serum (NIST-909c certified human serum sample; Sigma-Aldrich, St. Louis, MO, USA) (n = 3). The mixtures were incubated for 3 h at 37 °C. Then, 0.5 mL of acetonitrile was added to the human serum samples to precipitate the proteins, and the mixtures were centrifuged at 500× g for 10 min. The radiochemical purity of the human serum supernatants and PBS solution samples was analyzed by reverse-phase radio-HPLC, as described above.

[4] = tested on: LNCaP cells (PSMA+, CS-GRP78+); experiment: Saturation binding assay on LNCaP cells; set-up: species or system human; conditions: 1-100 nM radioligand, 4 °C, 2 h, non-specific binding with 1 μM PMPA, n = 3 from two independent experiments; for Kd: GraphPad Prism, read-out: Dissociation constant (Kd)
Procedure: as §1
The affinity comparison between the [^177Lu]Lu–iPSMA–iGRP78 dimer and [^177Lu]Lu–iPSMA monomer was performed in LNCaP cells. For the saturation binding analysis, cells were seeded on 96-well plate cultures ([…]) and incubated at 37 °C under a CO2 atmosphere for 24 h, then the plates were placed on ice for 30 min. Next, they were incubated at 4 °C for 2 h with increasing concentrations (from 1nM to 100 nM) of the monomer [^177Lu]^natLu-iPSMA or the dimer [^177Lu]^natLu-iPSMA-iGRP78. Finally, cells were washed with PBS followed by the addition of 1M NaOH for cell lysis. This solution was measured for radioactivity using a NaI(Tl) gamma counter (NML Inc., Littleton, CO, USA). Non-specific binding of [^177Lu]Lu–iPSMA–iGRP78 and [^177Lu]Lu–iPSMA was determined under the same experimental conditions described above but in the presence of PMPA (2-(phosphonomethyl) pentanedioic acid) at a final concentration of 1 μM. The dissociation constant (Kd) and maximum number of binding sites (Bmax) were calculated by a lineal regression analysis with data (n = 3) from two independent experiments using the GraphPad Prism software (v. 10.6.1).

SMILES | Cytosolic internalization [1] | Nuclear internalization [1] | Uptake in cellular cytosol and nucleus [2] | Dead cells (LNCaP cells) | Radiochemical purity, unchanged after incubation in PBS [3] | Maximum number of binding sites (Bmax) [4] | Kd [4]
CC[C@@H](C)[C@@H](NC(=O)[C@@H](Cc1c[nH]c2ccccc12)NC(=O)[C@H]1CCCN1C(=O)[C@@H](Cc1ccccc1)NC(=O)[C@H](NC(=O)[C@@H](Cc1c[nH]c2ccccc12)NC(=O)[C@@H](CS)NC(=O)c1ccc(NNC(=O)CN2CCN(CC(=O)O)CCN(CC(=O)O)CCN(CC(=O)O)CC2)nc1)[C@H](C)CC)C(=O)N[C@H](CCC(N)=O)C(=O)N[C@H](CC(C)C)C(=O)O [[^177Lu]Lu–iGRP78, metal not drawn] ({DOTA}-[X1][dC][dW][dI][dF][dP][dW][dI][dQ][dL]-OH) | highest internalization values | highest internalization values | low uptake | 68.93 ± 5.05% | exceeding 97% |  | 
O=C(O)CC[C@@H](NC(=O)N[C@H](CCCCNC(=O)[C@H](Cc1ccc2ccccc2c1)NC(=O)c1ccc(NNC(=O)CN2CCN(CC(=O)O)CCN(CC(=O)O)CCN(CC(=O)O)CC2)nc1)C(=O)O)C(=O)O [[^177Lu]Lu–iPSMA, metal not drawn] | 6.45 ± 0.60% | no uptake in the cell nucleus | low uptake | 38.63 ± 6.13% | exceeding 97% | 0.032 nM | 2.25 nM
CC[C@@H](C)[C@@H](NC(=O)[C@@H](Cc1c[nH]c2ccccc12)NC(=O)[C@H]1CCCN1C(=O)[C@@H](Cc1ccccc1)NC(=O)[C@H](NC(=O)[C@@H](Cc1c[nH]c2ccccc12)NC(=O)[C@@H](CS[C@@H]1CC(=O)N(CCCC(=O)N[C@@H](Cc2ccc3ccccc3c2)C(=O)NCCCC[C@@H](NC(=O)N[C@H](CCC(=O)O)C(=O)O)C(=O)O)C1=O)NC(=O)c1ccc(NNC(=O)CN2CCN(CC(=O)O)CCN(CC(=O)O)CCN(CC(=O)O)CC2)nc1)[C@H](C)CC)C(=O)N[C@H](CCC(N)=O)C(=O)N[C@H](CC(C)C)C(=O)O [[^177Lu]Lu–iPSMA–iGRP78, metal not drawn] ({DOTA}-[X1][dC](X2)[dW][dI][dF][dP][dW][dI][dQ][dL]-OH) | 10.44 ± 2.43% | 4.81 ± 0.94% | low uptake | 69.93 ± 4.85% | exceeding 97% | 0.048 nM | 1.88 nM

— publication PMC12733166, “Enhancing Cytosolic Internalization of [^177Lu]Lu–iPSMA in Prostate Cancer Cells: The Effect of Conjugating a GRP78 Inhibitor to the Radiotherapeutic Molecule” (International Journal of Molecular Sciences, 2025)
